Format in all cases: cell-based
Assay [1] addresses T1, Cav1.2 (Homo sapiens, UniProt Q13936).
T1 construct: gene CACNA1C; human Cav1.2 expressed in HEK293 cells (plasmid printed as pCDNA3.1hCACNA2D)
The experiment in a line: whole-cell patch clamp of ICa in transfected HEK293 cells, VH -80 mV; IC50 undefined (solubility). The note with it: read-out: % reduction of ICa amplitude at 30 μM.

The target of another assay is T2, Nav1.5 (Homo sapiens, UniProt Q14524).
T2 construct: gene SCN5A; human Nav1.5 (pCDNA3.1hSCN5A) expressed in HEK293 cells
The experiment in a line: whole-cell patch clamp in transfected HEK293 cells; steady-state inactivation left-shifted at […], no change in current density or activation.

Assay [2] deals with T1, Cav1.2. The experiment in a line: whole-cell patch clamp of ICa in transfected HEK293 cells, VH -80 mV. The note with it: read-out: % reduction of ICa amplitude at 1 μM. A general note: Patch clamp records ionic current or voltage across a cell membrane.

SMILES strings stand for the structures.

T1 sequence (Q13936 whole entry): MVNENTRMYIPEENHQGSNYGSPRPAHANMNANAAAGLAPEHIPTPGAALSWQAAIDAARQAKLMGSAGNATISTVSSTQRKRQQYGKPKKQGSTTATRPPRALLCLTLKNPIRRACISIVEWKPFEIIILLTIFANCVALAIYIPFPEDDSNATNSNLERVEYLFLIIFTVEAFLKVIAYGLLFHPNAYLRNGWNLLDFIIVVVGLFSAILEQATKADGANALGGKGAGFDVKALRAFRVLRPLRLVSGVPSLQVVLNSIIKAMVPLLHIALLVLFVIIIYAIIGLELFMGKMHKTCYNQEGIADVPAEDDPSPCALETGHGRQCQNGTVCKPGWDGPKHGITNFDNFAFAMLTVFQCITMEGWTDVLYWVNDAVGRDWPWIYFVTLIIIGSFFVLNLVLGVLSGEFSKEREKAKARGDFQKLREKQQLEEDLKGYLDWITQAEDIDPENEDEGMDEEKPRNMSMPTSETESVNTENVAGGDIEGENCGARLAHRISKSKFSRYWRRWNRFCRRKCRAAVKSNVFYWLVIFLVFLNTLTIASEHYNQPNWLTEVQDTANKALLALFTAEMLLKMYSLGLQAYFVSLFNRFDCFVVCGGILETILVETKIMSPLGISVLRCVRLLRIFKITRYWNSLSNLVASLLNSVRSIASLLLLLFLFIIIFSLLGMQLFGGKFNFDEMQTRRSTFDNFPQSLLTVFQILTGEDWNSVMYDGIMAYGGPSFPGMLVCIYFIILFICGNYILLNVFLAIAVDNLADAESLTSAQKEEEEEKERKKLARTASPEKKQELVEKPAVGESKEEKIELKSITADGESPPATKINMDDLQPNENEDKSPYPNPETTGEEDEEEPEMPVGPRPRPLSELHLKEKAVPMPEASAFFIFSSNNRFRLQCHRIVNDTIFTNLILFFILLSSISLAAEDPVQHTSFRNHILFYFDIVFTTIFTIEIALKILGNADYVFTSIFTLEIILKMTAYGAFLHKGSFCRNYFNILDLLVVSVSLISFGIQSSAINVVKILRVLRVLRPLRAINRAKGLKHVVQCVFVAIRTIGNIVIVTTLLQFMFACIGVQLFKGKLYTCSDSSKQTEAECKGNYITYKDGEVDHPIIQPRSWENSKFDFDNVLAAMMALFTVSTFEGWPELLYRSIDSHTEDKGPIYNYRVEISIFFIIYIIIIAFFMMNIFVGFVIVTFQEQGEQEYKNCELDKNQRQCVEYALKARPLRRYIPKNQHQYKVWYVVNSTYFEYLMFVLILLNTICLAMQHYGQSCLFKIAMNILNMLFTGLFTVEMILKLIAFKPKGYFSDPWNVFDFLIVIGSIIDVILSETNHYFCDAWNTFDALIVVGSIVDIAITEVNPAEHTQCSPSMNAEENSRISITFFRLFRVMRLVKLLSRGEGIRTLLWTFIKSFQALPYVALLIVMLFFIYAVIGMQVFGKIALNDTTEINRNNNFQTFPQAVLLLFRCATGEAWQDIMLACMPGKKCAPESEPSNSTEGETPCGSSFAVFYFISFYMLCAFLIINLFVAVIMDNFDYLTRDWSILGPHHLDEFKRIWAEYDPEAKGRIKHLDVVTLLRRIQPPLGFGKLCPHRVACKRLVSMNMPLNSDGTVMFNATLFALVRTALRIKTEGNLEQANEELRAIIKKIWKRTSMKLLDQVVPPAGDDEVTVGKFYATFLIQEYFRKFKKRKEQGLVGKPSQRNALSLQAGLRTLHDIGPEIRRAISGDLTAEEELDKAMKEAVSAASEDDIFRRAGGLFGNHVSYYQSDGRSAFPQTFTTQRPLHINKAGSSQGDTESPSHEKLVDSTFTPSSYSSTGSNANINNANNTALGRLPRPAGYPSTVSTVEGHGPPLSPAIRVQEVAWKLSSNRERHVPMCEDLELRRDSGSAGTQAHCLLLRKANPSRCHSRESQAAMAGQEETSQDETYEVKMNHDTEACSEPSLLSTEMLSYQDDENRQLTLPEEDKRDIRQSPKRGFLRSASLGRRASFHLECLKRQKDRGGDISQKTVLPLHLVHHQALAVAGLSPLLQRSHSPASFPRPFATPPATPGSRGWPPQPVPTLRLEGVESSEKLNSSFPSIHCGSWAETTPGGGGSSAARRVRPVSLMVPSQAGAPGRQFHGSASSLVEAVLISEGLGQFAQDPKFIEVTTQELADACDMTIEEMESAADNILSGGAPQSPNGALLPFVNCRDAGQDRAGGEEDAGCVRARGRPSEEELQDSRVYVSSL
T2 sequence (Q14524 whole entry): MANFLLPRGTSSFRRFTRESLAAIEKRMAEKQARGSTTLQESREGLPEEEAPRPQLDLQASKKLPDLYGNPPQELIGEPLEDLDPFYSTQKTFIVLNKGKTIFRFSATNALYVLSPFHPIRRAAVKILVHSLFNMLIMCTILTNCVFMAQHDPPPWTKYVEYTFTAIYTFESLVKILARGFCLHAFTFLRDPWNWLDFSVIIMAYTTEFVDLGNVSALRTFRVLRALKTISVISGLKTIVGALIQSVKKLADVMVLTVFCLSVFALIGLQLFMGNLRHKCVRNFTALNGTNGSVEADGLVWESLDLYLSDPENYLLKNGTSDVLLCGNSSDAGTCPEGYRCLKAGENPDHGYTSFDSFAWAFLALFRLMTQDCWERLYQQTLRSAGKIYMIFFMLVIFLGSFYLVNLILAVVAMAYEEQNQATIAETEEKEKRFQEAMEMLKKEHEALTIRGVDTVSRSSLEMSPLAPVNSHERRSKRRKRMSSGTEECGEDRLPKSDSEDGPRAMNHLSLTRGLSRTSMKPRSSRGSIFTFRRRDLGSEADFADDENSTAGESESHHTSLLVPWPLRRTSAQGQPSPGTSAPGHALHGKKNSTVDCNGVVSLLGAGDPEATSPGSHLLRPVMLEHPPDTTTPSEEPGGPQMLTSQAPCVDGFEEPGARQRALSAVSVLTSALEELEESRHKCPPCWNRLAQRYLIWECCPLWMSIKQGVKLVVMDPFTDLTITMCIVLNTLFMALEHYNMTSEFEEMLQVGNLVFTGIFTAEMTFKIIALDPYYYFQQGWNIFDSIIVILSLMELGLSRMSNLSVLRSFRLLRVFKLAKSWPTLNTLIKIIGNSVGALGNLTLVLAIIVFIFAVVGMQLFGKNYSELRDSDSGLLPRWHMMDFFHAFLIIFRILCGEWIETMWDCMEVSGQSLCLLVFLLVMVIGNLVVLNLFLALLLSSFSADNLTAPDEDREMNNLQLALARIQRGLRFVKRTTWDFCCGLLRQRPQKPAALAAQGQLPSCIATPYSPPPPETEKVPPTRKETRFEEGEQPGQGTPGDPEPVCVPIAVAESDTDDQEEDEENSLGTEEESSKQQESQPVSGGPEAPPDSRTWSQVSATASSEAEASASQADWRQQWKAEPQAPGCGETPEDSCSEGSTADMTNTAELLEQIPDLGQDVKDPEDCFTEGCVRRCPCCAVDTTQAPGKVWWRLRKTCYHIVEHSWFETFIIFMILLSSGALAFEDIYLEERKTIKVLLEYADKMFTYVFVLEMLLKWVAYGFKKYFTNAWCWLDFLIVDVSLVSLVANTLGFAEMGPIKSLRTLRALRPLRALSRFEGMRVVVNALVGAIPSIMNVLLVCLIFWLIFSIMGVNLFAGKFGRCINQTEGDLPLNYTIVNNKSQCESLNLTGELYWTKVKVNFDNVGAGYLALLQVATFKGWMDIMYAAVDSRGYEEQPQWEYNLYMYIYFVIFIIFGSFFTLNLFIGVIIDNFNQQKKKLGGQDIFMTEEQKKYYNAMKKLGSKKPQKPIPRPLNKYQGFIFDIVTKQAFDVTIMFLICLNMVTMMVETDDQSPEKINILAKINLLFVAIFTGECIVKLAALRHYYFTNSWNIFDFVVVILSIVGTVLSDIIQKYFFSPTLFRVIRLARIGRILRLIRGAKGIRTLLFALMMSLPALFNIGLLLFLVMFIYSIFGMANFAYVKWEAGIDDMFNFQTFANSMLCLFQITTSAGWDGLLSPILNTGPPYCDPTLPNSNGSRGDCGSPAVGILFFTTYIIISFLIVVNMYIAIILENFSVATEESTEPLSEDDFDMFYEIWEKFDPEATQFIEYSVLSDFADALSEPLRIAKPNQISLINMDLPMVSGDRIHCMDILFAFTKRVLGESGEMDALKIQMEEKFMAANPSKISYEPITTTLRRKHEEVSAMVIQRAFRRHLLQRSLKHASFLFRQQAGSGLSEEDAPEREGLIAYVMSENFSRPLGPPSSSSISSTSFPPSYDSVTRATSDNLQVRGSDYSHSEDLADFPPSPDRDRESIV

With `CC(=O)Oc1ccc(-c2cc(=O)c3c(O)c4c(cc3o2)OC(c2ccccc2)(c2ccccc2)O4)cc1` [10e, 4-(9-Hydroxy-8-oxo-2,2-diphenyl-8H-[1,3]dioxolo[4,5-g]chromen-6-yl)phenyl acetate], on Cav1.2 [1], the inhibition at 30 µM is roughly 32.6%. In addition, the “whole-cell patch clamp in transfected HEK293 cells; steady-state inactivation le” value at Nav1.5 is recorded as −94.1 ± 1.7 mV (inactivation V1/2 at 30 μM; control −84.4 ± 0.6 mV). Regarding `COC(=O)C1=C(C)NC(C)=C(C(=O)OC)C1c1ccccc1[N+](=O)[O-]` [Nifedipine], the inhibition at 1 µM on Cav1.2 [2] is roughly 97.9%.

For the origin of these results see paper PMC10650756, “Synthesis and In Vivo Antiarrhythmic Activity Evaluation of Novel Scutellarein Analogues as Voltage-Gated Nav1.5 and Cav1.2 Channels Blockers” (Molecules, 2023).
